According to patent US5484778A, “Phthalocyanine photosensitizers for photodynamic therapy and methods for their use” (priority 1993, dated 1996):
Entries after “also recorded” stand apart in the source; their conditions may differ. Like-named read-outs stand apart in the source and are kept apart here.

Columns and labels:
[1] = test system: Chinese hamster V79-379 cells; experiment: Uptake of phthalocyanines by V79 cells relative to AlPcCl (Table 1); assay type: cell-based; details: for Uptake, efficiency relative to 1 μM AlPcCl: 18 h
Procedure: Chinese hamster V79-379 lung fibroblasts were grown in monolayer culture in McCoy's 5A medium (Gibco Laboratories, Grand Island, N.Y.) augmented with 10% calf serum and buffered with 20 mM HEPES (pH 7.4).
Total uptake was determined by scraping the phthalocyanine-treated monolayer, collecting the cells on a glass-fiber filter, and extracting the phthalocyanine in ethanol, as previously described by Ramakrishnan, et al., 1989. (Ramakrishnan, N., M. E. Clay, M. F. Horng, A. R. Antunez, & H. H. Evans, "DNA Lesions and DNA Degradation in Mouse Lymphoma L5178Y Cells After Photodynamic Treatment Sensitized by Chloroaluminum Phthalocyanine",Photochem. Photobiol, in press, 1989). The amount of drug was determined by absorption at 674 nm and expressed relative to the number of cells, as measured in a Coulter cell counter on an aliquot of the cell population. Controls included cells not treated with drug, medium alone, and drug-containing medium without cells. The results of the total uptake of the various compositions of the present invention in comparison to AlPcCl are set forth below in Table 1.
The cells were treated with 1 μM AlPcCl (from Eastman Kodak, Rochester, N.Y.) or with phthalocyanine compositions I-VI (0.5-1.0 μM final concentration in the medium) for 18 hours by adding the appropriate volume of a 1.0 mM stock solution in dimethylformamide (DMF) to the culture medium. The growth medium was replaced with 4 ml Hank's balanced salt solution (HBSS), and the cells were irradiated. The light source was a 500 W tungsten-halogen lamp located approximately 29 inches below the surface of a glass exposure tray. The visible light administered to the cells was filtered to allow passage of only that portion of the visible spectrum above 600 nm (Lee Primary red filter No. 106, Vincent Lighting, Cleveland, Ohio). The fluence rate was approximately 0.074 kJ/m^2 /s at the level of the cell monolayer.
All of the compounds have been examined for the extent of cellular uptake after exposure of V79 cells to 1 μM or less in complete medium, and the data of Table 1 are presented relative to the uptake from 1 μM AlPcCl, which was 0.723±0.172 nmole/10^7 cells (mean ±S. D., 25 determinations). […] In particular, when the concentration of Compound IV was 1 μM in the medium, the uptake into the cells was sufficiently high that some of the uptake and phototoxicity studies were repeated at 0.5 μM.

[2] = test system: L5178Y-R (LY-R) cells; experiment: Clonogenic survival of PDT-treated L5178Y-R cells (Tables 4 and 5, FIG. 3); assay type: cell-based, mouse; details: for viability at 0.5 µM: Mus musculus, read-out: normalized plating efficiency / percent survival, 0.5 μM
Procedure: Mouse lymphoma L5178y-R (hereinafter also referred to as "LY-R") cells were grown in suspension culture as described in Ramakrishnan N., Oleinick, N. L. Clay, M. E., Horng, M. F., Antunez, A. R., and Evans H. H., DNA lesions and DNA degradation in mouse lymphoma L5178Y cells after photodynamic treatment sensitized by chloroaluminum phthalocyanine. Photochem. Photobiol. 50, 373-378, 1989 and Agarwal, M. L., Clay, M. E., Harvey, E. J., Evans, H. H., Antunez, A. R., and Oleinick, N. L. Photodynamic therapy induces rapid cell death by apoptosis in L5178Y mouse lymphoma cells. Cancer Res., 51, 5993-5996, 1991.
The cells were used while in exponential growth. Stock solutions of either 0.5 or 1 mM of PcIV, PcXII, PcX, PcXVIII were prepared in dimethylformamide unless otherwise indicated and added to the 10 mL medium at a rate of 1 μL per mL. After allowing 18 hours for uptake of the phthalocyanine into the cells, the flasks containing the cultures were placed on a glass exposure tray above a 500-W tungsten-halogen lamp. The exposure tray was fitted with a 600-nm high-pass filter. Flasks were exposed to various fluences of red light (up to 30 kJ/m^2) at a fluence rate of approximately 74 W/m^2). After irradiation, the cells were collected by centrifugation.
For measurement of clonogenic cell survival, aliquots were plated in medium containing soft agar as described in Ramakrishnan N., Oleinick, N. L. Clay, M. E., Horng, M. F., Antunez, A. R., and Evans H. H., DNA lesions and DNA degradation in mouse lymphoma L5178Y cells after photodynamic treatment sensitized by chloroaluminum phthalocyanine. Photochem. Photobiol. 50, 373-378, 1989. The aliquots were plated in sufficient numbers to produce 50-200 colonies. The dishes were kept in an incubator at 37° C. in an atmosphere of 5% CO2 and 95% air for 10-14 days to allow viable cells to form colonies. Colonies were counted by eye. Controls treated with the phthalocyanine alone had plating efficiencies of ~90%. The plating efficiencies of the treated cells are normalized to the plating efficiencies of control cells in each experiment. For measurement of the induction of apoptosis, DNA was isolated from the treated and control cells 2 hours after photodynamic therapy, subjected to electrophoresis on 1.5% agarose, stained with ethidium bromide, and visualized by UV transillumination, as described in Agarwal et. al. The results are shown in Tables 4, 5 and 6 and in FIG. 3.
In Table 4 each phthalocyanine was present at 0.5 μM, and the normalized plating efficiencies are presented as mean and standard deviation at each fluence tested. […] This relative activity of these four phthalocyanines is the same as obtained from screening in V79 cells.
PcXII when present in the culture medium at 0.5 μM requires less light, that is the lowest fluence, to kill either 50% […] of the cells. PcIV is about 80% as active as PcXII, PcX is 44% as active as PcXII and PcXVIII is 22% as active as PcXII.

CN(C)CCC[Si](C)(C)O[Si]1(O)n2c3c4ccccc4c2N=C2N=C(N=c4c5ccccc5c(n41)=NC1=NC(=N3)c3ccccc31)c1ccccc12 (stereo not shown) [Compound IV, HOSiPcOsi(CH3)2)(CH2)3 N(CH3)2]
Uptake, efficiency relative to 1 μM AlPcCl ([1]; 0.5 μM): 1.3 | Uptake, efficiency relative to 1 μM AlPcCl ([1]; 1.0 μM): 1.64 | cellular uptake (in words) ([1]; V79 cells, 1 μM or less, compared with AlPcCl): taken up into the cells more efficiently than was AlPcCl | activity relative to PcXII ([2]; 0.5 μM, from Table 5): about 80% | LD 90 ([2]; 0.5 μM, fluence reducing survival to 10%): 2.15 kJ/m^2 | LD50 ([2]; 0.5 μM, fluence reducing survival to 50%): 1.38 kJ/m^2 | photosensitizer activity in LY-R cells (in words) ([2]; 0.5 μM, listed as PcIV): active photosensitizers; also recorded: most active | viability at 0.5 µM ([2]; 0 kJ/m^2): 100% | viability at 0.5 µM ([2]; 1 kJ/m^2): 80.9% | viability at 0.5 µM ([2]; 2 kJ/m^2): 19.7% | viability at 0.5 µM ([2]; 2.5 kJ/m^2): 0.82% | viability at 0.5 µM ([2]; 3 kJ/m^2): 0.16% | viability at 0.5 µM ([2]; 5 kJ/m^2): 0.014%
